From the supplement of paper PMC8671470

Tests used:
Assay in all cases: cell viability (% survival relative to DMSO control); higher = less cytotoxic
Conditions in all cases: 72 h
[1] = system: myeloid leukemia patient primary cells Pat.9
How it was run: (§1)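 Mononuclear cells from patients with AML or CML were thawed, purified on Ficoll and placed in RPMI 1640 with 10% FBS at 10,000 cells/well on 384-well plates. The plates came pre-printed with 70 compounds at five tenfold concentrations spanning 1–10,000 nM, in duplicate, and cells were exposed for 72 h. CellTiter-Glo gave viability, scaled between DMSO wells and wells with 10 μM proteasome inhibitor. Where reported, area under the curve was obtained from log-logistic fits with four parameters using the drc and PharmacoGx R packages.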

[2] = system: myeloid leukemia patient primary cells Pat.12
How it was run: as §1

[3] = system: myeloid leukemia patient primary cells Pat.2
How it was run: as §1

[4] = system: myeloid leukemia patient primary cells Pat.15
How it was run: as §1

Row | Structure (SMILES) | cell viability ([1]; 1 nM) | cell viability ([1]; 10 nM) | cell viability ([1]; 100 nM) | cell viability ([1]; 1000 nM) | cell viability ([1]; 10000 nM) | cell viability ([2]; 1 nM) | cell viability ([2]; 10 nM) | cell viability ([2]; 100 nM) | cell viability ([2]; 1000 nM) | cell viability ([2]; 10000 nM) | cell viability ([3]; 1 nM) | cell viability ([3]; 10 nM) | cell viability ([3]; 100 nM) | cell viability ([3]; 1000 nM) | cell viability ([3]; 10000 nM) | cell viability ([4]; 1 nM) | cell viability ([4]; 10 nM) | cell viability ([4]; 100 nM) | cell viability ([4]; 1000 nM) | cell viability ([4]; 10000 nM)
1 | CC12CCC(O)CC1CCC1C2CCC2(C)C(C3=CC(=O)OC3)CCC12O (stereo not given) [Digitoxigenin] | 79% | 54.7% | 13% | 5.35% | 4.43% | 97.4% | 96% | 94.2% | 58.7% | 16.8% | 94.1% | 95.3% | 88.5% | 42.4% | 6.42% | > 100% | 92.9% | 97.5% | 8.87% | 2.72%
2 | Sc1ncnc2nc[nH]c12 [6-mercaptopurine] | 62.5% | 68.1% | 48.8% | 79.9% | 30.1% | > 100% | 95.9% | 93.6% | 97.3% | > 100% | 95.6% | > 100% | 94% | 99.9% | > 100% | 99.2% | > 100% | 98.5% | 94.3% | 98.3%
3 | CCOC(=O)N1c2ccc(C(F)(F)F)cc2[C@@H](N(Cc2cc(C(F)(F)F)cc(C(F)(F)F)c2)C(=O)OC)C[C@H]1CC [Torcetrapib] | 45.1% | 28.6% | 68.9% | 48.8% | 5.45% | 93.2% | 82.7% | 94.3% | 89.7% | 79% | 97.2% | 84.4% | 99.7% | 99.7% | 80.2% | 98.5% | 86% | 97.7% | 87.1% | 75.8%
4 | Nc1ccn([C@@H]2O[C@H](CO)[C@@H](O)[C@@H]2O)c(=O)n1 [Cytarabine] | 89.7% | 18.1% | 51.2% | 15.5% | 2.09% | 96.3% | 94.1% | > 100% | 97.1% | 67.7% | 99% | 88.1% | 95.9% | 89.1% | 37.3% | 94.5% | 86.4% | 99.6% | 81% | 32.8%
5 | C[C@]12O[C@H](C[C@]1(O)CO)n1c3ccccc3c3c4c(c5c6ccccc6n2c5c31)CNC4=O [Lestaurtinib] | 56.2% | 18.6% | 19.5% | 5.6% | < 0% | > 100% | > 100% | 87% | > 100% | 1.77% | 97.1% | 79% | 74.7% | 51.1% | 11.5% | 97.1% | 61.3% | 43.7% | 2.83% | 0.259%
6 | Clc1ccc(COC(Cn2ccnc2)c2ccc(Cl)cc2Cl)cc1 (stereo not given) [Econazole] | 55.9% | 80.5% | 43.2% | 25.8% | 3.7% | 89.2% | 94.9% | 95.7% | 96.5% | 90.3% | 94.9% | 91.2% | 96.5% | 97.6% | 90% | 84.3% | 92.6% | 98.3% | 89.4% | 68.7%
7 | CCN(CC)CCN(Cc1ccc(-c2ccc(C(F)(F)F)cc2)cc1)C(=O)Cn1c(SCc2ccc(F)cc2)nc(=O)c2c1CCC2 [Darapladib] | 37.7% | 60.6% | 25.1% | 2.92% | < 0% | 94.6% | 97.5% | 85.3% | 92.2% | < 0% | 84.7% | 95.9% | 83% | 83.1% | < 0% | 82.5% | > 100% | 85.8% | 96% | 0.433%
8 | Cc1noc2c1-c1ccccc1C(c1ccc(Cl)cc1)=N[C@H]2CC(N)=O [CPI-0610] | 83% | 24.2% | 88.3% | 6.03% | 11.5% | 96.7% | 90.2% | 98.4% | 82.8% | 80.9% | 99.4% | 97.6% | 88.9% | 58.5% | 40.3% | 95.1% | 94.6% | 76.1% | 3.36% | 1.08%
9 | COc1c(C)c2c(c(O)c1C/C=C(\C)CCC(=O)O)C(=O)OC2 [Mycophenolic acid] | 28% | 63.2% | 52% | 50.4% | 75% | > 100% | > 100% | 85.9% | > 100% | 80.5% | 97.4% | 99.8% | 82.1% | > 100% | 85.6% | 91.6% | 94.3% | 86.7% | > 100% | 84.3%
10 | CC(Cc1ccc(O)c(O)c1)C(C)Cc1ccc(O)c(O)c1 (stereo not given) [Masoprocol] | 75.1% | 87.1% | 97.4% | 9.61% | 83.4% | 91.2% | 96.6% | 98.3% | 89% | 35.1% | 98.7% | 89.8% | 90.3% | 87.7% | 68% | 89% | 93.8% | 94.4% | 80.9% | 31.1%
11 | C[C@H]1O[C@@H](O[C@H]2[C@@H](O)C[C@H](O[C@H]3[C@@H](O)C[C@H](O[C@H]4CC[C@@]5(C)[C@H](CC[C@@H]6[C@@H]5C[C@@H](O)[C@]5(C)[C@@H](C7=CC(=O)OC7)CC[C@]65O)C4)O[C@@H]3C)O[C@@H]2C)C[C@H](O)[C@@H]1O [Digoxin] | 76% | 65.2% | 17.7% | 2.92% | 2.42% | 94.2% | 95% | 85.5% | 41.7% | 12.6% | 99.2% | 96.8% | 82.8% | 26.6% | 3.27% | 98.4% | 98.4% | 50.6% | 1.74% | 1.52%
